Read-outs that look alike come from different tables or passages of the source.
Assays:
human IDO = human IDO (Homo sapiens, UniProt P14902); experiment: Cell based IDO/kynurenine assay in IDO-293-T-Rex cells; conditions: kynurenine production, 293T cells expressing human IDO, read-out: hIDO EC50
How it was run: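 293-T-REx cells stably carrying doxycycline-inducible human or murine IDO were incubated with inhibitors in induction medium for 16 h at 37° C. Medium was TCA-treated at 60° C and reacted with p-dimethylaminobenzaldehyde. Kynurenine was quantified by absorbance at 480 nm.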

murine IDO = biological target: T1, murine IDO (Mus musculus, UniProt P28776); experiment: Cell based IDO/kynurenine assay in 293-T-Rex cells expressing murine IDO; conditions: cells expressing murine IDO, read-out: mIDO EC50
T1 construct: expressed in transfected cells; host or cells: 293-T-REx cells (Invitrogen), doxycycline-inducible CMV-tet promoter
T1 sequence (P28776 whole entry): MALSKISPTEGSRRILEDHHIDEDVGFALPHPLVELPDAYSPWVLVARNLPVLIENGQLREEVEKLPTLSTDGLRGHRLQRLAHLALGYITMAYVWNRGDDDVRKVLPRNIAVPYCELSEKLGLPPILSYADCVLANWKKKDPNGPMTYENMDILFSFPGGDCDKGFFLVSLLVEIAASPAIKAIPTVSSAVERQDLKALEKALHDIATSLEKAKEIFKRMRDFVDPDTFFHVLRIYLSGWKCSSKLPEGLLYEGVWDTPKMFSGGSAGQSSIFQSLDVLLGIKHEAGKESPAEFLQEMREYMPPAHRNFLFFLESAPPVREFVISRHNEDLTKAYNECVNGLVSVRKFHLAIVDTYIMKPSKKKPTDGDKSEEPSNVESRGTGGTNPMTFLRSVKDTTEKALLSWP
Method: Transfected cells were selected in DBZ medium (DMEM, 10% FBS, 1× Penicillin+Streptomycin, 2 mM L-glutamine, 5 μg/mL blasticidin and 25 μg/ml Zeocin) at 37° C. with a 5% CO2 in air atmosphere. Individual clones were isolated by limiting dilution cloning from these populations.
The cells incubated in Neutral medium serve as negative control of the assay. The cells incubated in Induction medium and without inhibitor serve as the positive control of the assay. The incubation is carried out for 16 h at 37° C. in a cell culture incubator. 200 μL of medium are transferred to U-bottom polypropylene 96-well plates containing 25 μL of 30% TCA, incubated 30 minutes at 60° C. and centrifuged at 3400 g for 5 minutes. 150 μL of the clear supernatant is transferred to a polystyrene 96-well plate containing 50 μL of 4% (w/v) of p-dimethylaminobenzaldehyde in acetic acid, incubated for 10 min. Kynurenine concentration is determined by measuring the absorbance at 480 nm.

[1] = biological target: purified human IDO protein (Homo sapiens, UniProt P14902); experiment: Enzymatic IDO assay (kynurenine production, absorbance 480 nm); conditions: recombinant human IDO, enzymatic activity
Sequence of purified human IDO protein (P14902 whole entry P110S/E119G): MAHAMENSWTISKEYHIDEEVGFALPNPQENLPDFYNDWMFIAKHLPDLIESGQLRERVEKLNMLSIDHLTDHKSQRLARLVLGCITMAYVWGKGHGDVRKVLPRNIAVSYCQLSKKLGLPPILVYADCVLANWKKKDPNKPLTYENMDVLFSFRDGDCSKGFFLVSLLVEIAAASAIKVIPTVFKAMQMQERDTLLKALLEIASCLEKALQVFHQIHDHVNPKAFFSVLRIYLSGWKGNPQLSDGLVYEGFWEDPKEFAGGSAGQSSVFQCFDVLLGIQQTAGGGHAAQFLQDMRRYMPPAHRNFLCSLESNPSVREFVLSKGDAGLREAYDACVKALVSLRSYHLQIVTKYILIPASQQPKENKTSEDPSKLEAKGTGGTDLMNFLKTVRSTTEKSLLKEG

Sequence of human IDO (P14902 whole entry): as the sequence (P14902 whole entry P110S/E119G) above, with S110P, G119E counted along it

Row | SMILES | EC50 (human IDO; Table 16) | EC50 (murine IDO; Table 16) | IC50 ([1]; hIDO IC50, Table 16) | EC50 (human IDO; Table 15) | EC50 (murine IDO; Table 15) | IC50 ([1]; hIDO IC50, Table 15)
1 | COc1cccc(CON)c1 [compound 1682, O-(3-methoxybenzyl)hydroxylamine] | < 10 µM | < 10 µM | < 10 µM |  |  | 
2 | NOCc1ccc2c(c1)OCO2 [compound 1744, O-(benzo[d][1,3]dioxol-5-ylmethyl)hydroxylamine] |  |  |  | < 10 µM | 10 to 100 µM | < 10 µM
3 | NOCc1nc2ccccc2s1 [compound 1749, O-(benzo[d]thiazol-2-ylmethyl)hydroxylamine] |  |  |  | < 10 µM | < 10 µM | < 10 µM
4 | NOCc1cccc(I)c1 [compound 1816, O-(3-iodobenzyl)hydroxylamine] | < 10 µM | 10 to 100 µM | < 10 µM |  |  | 
5 | NOCc1ccccc1CON [compound 1822, O,O′-(1,2-phenylenebis(methylene))bis(hydroxylamine)] | 10 to 100 µM | 10 to 100 µM | 10 to 100 µM |  |  | 
6 | NOCCCc1ccccc1 [compound 1693, O-(3-phenylpropyl)hydroxylamine] | < 10 µM | 10 to 100 µM | 10 to 100 µM |  |  | 
7 | NOCc1csc2ccc(Cl)cc12 [compound 1743, O-((5-chlorobenzo[b]thiophen-3-yl)methyl)hydroxylamine] |  |  |  | < 10 µM | 10 to 100 µM | < 10 µM
8 | NOCc1ccc(F)cc1 [compound 774, O-(4-fluorobenzyl)hydroxylamine] | < 10 µM | < 10 µM | < 10 µM |  |  | 
9 | NOCc1cccc(-c2ccncc2)c1 [compound 1888, O-(3-(pyridin-4-yl)benzyl)hydroxylamine] |  |  |  | < 10 µM | 100 to 1000 µM | 10 to 100 µM
10 | NOCc1cccc(Br)c1 [compound 1656, O-(3-bromobenzyl)hydroxylamine] | < 10 µM | < 10 µM | < 10 µM |  |  | 
11 | NOC(c1ccccc1)C1CCCCC1 (stereo not drawn) [compound 1920, O-(cyclohexyl(phenyl)methyl)hydroxylamine] |  |  |  | < 10 µM | 10 to 100 µM | < 10 µM
12 | NOCc1cccc(Nc2ccccc2)c1 [compound 1829, 3-(aminooxymethyl)-N-phenylaniline] |  |  |  | < 10 µM | < 10 µM | < 10 µM
13 | NOCc1ccccc1Br [compound 1675, O-(2-bromobenzyl)hydroxylamine] | < 10 µM | < 10 µM | < 10 µM |  |  | 
14 | NOCc1cc(Cl)cc(-c2ccc(Cl)cc2)c1 [compound 1893, O-((4′,5-dichlorobiphenyl-3-yl)methyl)hydroxylamine] |  |  |  | < 10 µM | 10 to 100 µM | < 10 µM
15 | COC(=O)c1ccc(CON)cc1 [compound 1684, methyl 4-(aminooxymethyl)benzoate] | < 10 µM | 10 to 100 µM | < 10 µM |  |  | 
16 | COc1ccc(-c2ccc(Cl)cc2CON)cc1 [compound 1914, O-((4-chloro-4′-methoxybiphenyl-2-yl)methyl)hydroxylamine] |  |  |  | < 10 µM | 10 to 100 µM | < 10 µM
17 | NOCc1ccc([N+](=O)[O-])cc1 [compound 1014, O-(4-nitrobenzyl)hydroxylamine] | < 10 µM | 10 to 100 µM | 10 to 100 µM |  |  | 
18 | NOCc1cccc(NCc2ccccc2)c1 [compound 1872, 3-(aminooxymethyl)-N-benzylaniline] |  |  |  | < 10 µM | < 10 µM | < 10 µM
19 | NOCc1ccccc1 [compound 1666, O-benzylhydroxylamine] | < 10 µM | < 10 µM | < 10 µM |  |  | 

Row | SMILES | EC50 (human IDO; Table 16) | EC50 (murine IDO; Table 16) | IC50 ([1]; hIDO IC50, Table 16) | EC50 (human IDO; Table 15) | EC50 (murine IDO; Table 15) | IC50 ([1]; hIDO IC50, Table 15)
20 | NOCc1ccccc1-c1ccncc1 [compound 1889, O-(2-(pyridin-4-yl)benzyl)hydroxylamine] |  |  |  | < 10 µM | 100 to 1000 µM | 10 to 100 µM
21 | NOCc1cc(Cl)ccc1-c1ccccc1 [compound 1916, O-((4-chlorobiphenyl-2-yl)methyl)hydroxylamine] |  |  |  | < 10 µM | 10 to 100 µM | < 10 µM
22 | NOC(CC1CCCCC1)c1ccccc1 (stereo not drawn) [compound 1925, O-(2-cyclohexyl-1-phenylethyl)hydroxylamine] |  |  |  | < 10 µM | 10 to 100 µM | 10 to 100 µM
23 | NOCc1cccc(NCc2ccccc2)c1 [compound 1828, 3-(aminooxymethyl)-N-benzylaniline] |  |  |  | 10 to 100 µM | 100 to 1000 µM | 100 to 1000 µM
24 | NOCc1ccc(F)cc1Cl [compound 1676, O-(2-chloro-4-fluorobenzyl)hydroxylamine] |  |  |  | < 10 µM | 10 to 100 µM | < 10 µM
25 | NOCc1ccc(C(F)(F)F)cc1 [compound 934, O-(4-(trifluoromethyl)benzyl)hydroxylamine] | < 10 µM | < 10 µM | < 10 µM |  |  | 
26 | NOCc1cc(Cl)ccc1-c1ccc(Cl)cc1 [compound 1892, O-((4,4′-dichlorobiphenyl-2-yl)methyl)hydroxylamine] |  |  |  | < 10 µM | < 10 µM | < 10 µM
27 | NOCCOc1ccccc1 [compound 1679, O-(2-phenoxyethyl)hydroxylamine] | < 10 µM | < 10 µM | < 10 µM |  |  | 
28 | NOCc1ccc(F)c(Cl)c1 [compound 1673, O-(3-chloro-4-fluorobenzyl)hydroxylamine] | < 10 µM | > 1000 µM | 100 to 1000 µM |  |  | 
29 | COC(=O)CCC(ON)c1ccccc1 (stereo not drawn) [compound 1880, methyl 4-(aminooxy)-4-phenylbutanoate] |  |  |  | < 10 µM | 100 to 1000 µM | < 10 µM
30 | COc1ccc(CON)cc1 [compound 1815, O-(4-methoxybenzyl)hydroxylamine] | < 10 µM | 10 to 100 µM | 10 to 100 µM |  |  | 
31 | NOCc1cc(Cl)ccc1-c1ccc(Cl)c(Cl)c1 [compound 1919, O-((3′,4,4′-trichlorobiphenyl-2-yl)methyl)hydroxylamine] |  |  |  | < 10 µM | 10 to 100 µM | < 10 µM
32 | N#Cc1cccc(CON)c1 [compound 1873, 3-(aminooxymethyl)benzonitrile] |  |  |  | < 10 µM | < 10 µM | < 10 µM
33 | NOCc1cc2ccccc2o1 [compound 1774, O-(benzofuran-2-ylmethyl)hydroxylamine] |  |  |  | < 10 µM | < 10 µM | < 10 µM
34 | NOC1CCCc2ccccc21 (stereo not drawn) [compound 1895, O-(1,2,3,4-tetrahydronaphthalen-1-yl)hydroxylamine] |  |  |  | < 10 µM | 10 to 100 µM | < 10 µM
35 | Cc1nc(-c2ccccc2)ncc1CON [compound 1740, O-((4-methyl-2-phenylpyrimidin-5-yl)methyl)hydroxylamine] |  |  |  | < 10 µM | < 10 µM | 10 to 100 µM
36 | NOCc1cc(Cl)ccc1-c1cncnc1 [compound 1923, O-(5-chloro-2-(pyrimidin-5-yl)benzyl)hydroxylamine] |  |  |  | < 10 µM | < 10 µM | < 10 µM
37 | NOCc1ccncc1 [compound 1737, O-(pyridin-4-ylmethyl)hydroxylamine] |  |  |  | < 10 µM | < 10 µM | 10 to 100 µM
38 | NOCc1cccc(-c2ccc(Cl)cc2)c1 [compound 1878, O-((4′-chlorobiphenyl-3-yl)methyl)hydroxylamine] |  |  |  | < 10 µM | 10 to 100 µM | < 10 µM

Reference: patent publication US20130289083A1, “IDO Inhibitors” (priority 2007, published 2013)
